This is an account of results in ChEMBL document CHEMBL5331145, “Discovery of a Novel Bifunctional Steroid Analog, YXG-158, as an Androgen Receptor Degrader and CYP17A1 Inhibitor for the Treatment of Enzalutamide-Resistant Prostate Cancer” (J Med Chem, 2023).

One data set has as its system LNCaP. Put plainly: Antiproliferative activity against human LNCaP cells incubated for 6 days by CellTiter-Glo assay. Type of data set: functional, cell-based. (In ATP-based viability assays light output follows the ATP content of the culture.)
Data set [1] concerns the target Voltage-gated inwardly rectifying potassium channel KCNH2 (Homo sapiens, UniProt Q12809). As to the kind of experiment: Inhibition of human ERG by patch clamp assay. It counts as toxicity.
Data set [2] concerns the target T1, Androgen receptor (Homo sapiens, UniProt P10275).
T1 sequence (P10275 whole entry): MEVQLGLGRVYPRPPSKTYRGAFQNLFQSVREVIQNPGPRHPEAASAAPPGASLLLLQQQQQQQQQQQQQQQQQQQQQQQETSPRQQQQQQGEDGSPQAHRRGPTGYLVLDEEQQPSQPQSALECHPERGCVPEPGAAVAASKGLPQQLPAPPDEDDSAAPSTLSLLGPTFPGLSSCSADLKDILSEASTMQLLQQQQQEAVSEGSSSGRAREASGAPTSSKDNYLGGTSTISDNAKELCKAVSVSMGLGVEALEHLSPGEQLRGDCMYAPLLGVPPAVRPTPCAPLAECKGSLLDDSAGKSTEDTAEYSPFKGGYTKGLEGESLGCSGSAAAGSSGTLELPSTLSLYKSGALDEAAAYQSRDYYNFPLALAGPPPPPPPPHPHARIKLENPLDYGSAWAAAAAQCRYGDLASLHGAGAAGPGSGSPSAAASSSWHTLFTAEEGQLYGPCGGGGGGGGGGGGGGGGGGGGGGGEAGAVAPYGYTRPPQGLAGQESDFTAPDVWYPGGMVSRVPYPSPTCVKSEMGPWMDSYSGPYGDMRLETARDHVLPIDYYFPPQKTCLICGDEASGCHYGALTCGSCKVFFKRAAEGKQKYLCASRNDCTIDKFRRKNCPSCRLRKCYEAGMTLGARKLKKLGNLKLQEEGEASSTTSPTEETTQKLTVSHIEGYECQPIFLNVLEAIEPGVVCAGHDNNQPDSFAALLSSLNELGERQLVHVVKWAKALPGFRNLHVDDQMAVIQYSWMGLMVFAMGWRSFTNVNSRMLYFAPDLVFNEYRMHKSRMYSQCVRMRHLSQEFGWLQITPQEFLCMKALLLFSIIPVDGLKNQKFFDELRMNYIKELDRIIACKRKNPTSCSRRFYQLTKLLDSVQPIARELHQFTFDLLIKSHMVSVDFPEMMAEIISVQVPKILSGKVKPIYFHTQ
Put plainly: Induction of androgen receptor degradation in human LNCaP cells incubated for 24 hrs by ELISA. It counts as cell-based. On the technique in general: An ELISA detects its analyte on a solid surface through an enzyme-linked reagent.

Data set [3] deals with T2, Steroid 17-alpha-hydroxylase/17,20 lyase (Homo sapiens, UniProt P05093).
T2 sequence (P05093 whole entry): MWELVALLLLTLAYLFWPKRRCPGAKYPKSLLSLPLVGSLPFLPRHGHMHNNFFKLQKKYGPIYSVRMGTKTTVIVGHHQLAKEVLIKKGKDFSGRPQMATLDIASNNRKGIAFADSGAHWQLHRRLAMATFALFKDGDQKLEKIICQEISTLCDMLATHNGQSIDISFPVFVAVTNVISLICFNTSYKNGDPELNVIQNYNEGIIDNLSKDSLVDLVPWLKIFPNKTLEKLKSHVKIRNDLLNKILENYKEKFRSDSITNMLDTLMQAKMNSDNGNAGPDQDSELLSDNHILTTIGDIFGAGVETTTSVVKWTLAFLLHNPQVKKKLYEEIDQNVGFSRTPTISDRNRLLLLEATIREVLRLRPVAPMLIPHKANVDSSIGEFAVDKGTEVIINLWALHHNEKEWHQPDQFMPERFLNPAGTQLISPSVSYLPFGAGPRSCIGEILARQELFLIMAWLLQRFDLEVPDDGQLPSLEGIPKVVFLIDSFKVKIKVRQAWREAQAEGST
Put plainly: Inhibition of recombinant human CYP17A1 using progesterone as substrate incubated for 5 mins in presence of NADPH by LC-MS/MS analysis. Type of data set: ADME.

Data set [4] is described as follows: Half life in Sprague-Dawley rat at 10 mg/kg, po measured upto 24 hrs by LC-MS/MS analysis. Type of data set: ADME, organism-based. Particulars: in vivo.
Data set [5] can be described thus: Tmax in Sprague-Dawley rat at 10 mg/kg, po measured upto 24 hrs by LC-MS/MS analysis. It counts as ADME, organism-based. The conditions noted are these: in vivo.
Data set [6] is described as follows: Cmax in Sprague-Dawley rat at 10 mg/kg, po measured upto 24 hrs by LC-MS/MS analysis. It counts as ADME, organism-based. Set-up: dose 10 mg/kg, time < 24 hrs, route po. Particulars: in vivo.
The nature of data set [7]: AUC(0 to t) in Sprague-Dawley rat at 10 mg/kg, po measured upto 24 hrs by LC-MS/MS analysis. Type of data set: ADME, organism-based. The conditions noted are these: in vivo.
The nature of data set [8]: Effect on androgen sensitive organs in testosterone propionate stimulated castrated male Sprague-Dawley rat assessed as seminal vesicles weight loss at 20 mg/kg, po administered once daily for 10 days and measured 24 hrs post last dose. It counts as functional. Particulars: time 11 day.
Data set [9] can be described thus: Effect on androgen sensitive organs in testosterone propionate stimulated castrated male Sprague-Dawley rat assessed as ventral prostate weight loss at 20 mg/kg, po administered once daily for 10 days and measured 24 hrs post last dose. It counts as functional. Particulars: time 11 day.
Data set [10] can be described thus: Antitumor activity against human LNCaP/AR cells xenografted in SCID male mouse assessed as tumor growth inhibition at 10 mg/kg, po administered once daily for 28 days and measured every 3 days. It counts as functional. Particulars: Homo sapiens, LNCaP/AR, 672 h, time 28 day, read-out: TGI. For orientation: In xenograft studies the graft and the host belong to different species.

A short description of data set [11]: Toxicity in SCID male mouse xenografted with human LNCaP/AR cells assessed as tolerability at 10 to 30 mg/kg, po administered once daily for 28 days and measured every 3 days. It counts as organism-based. Particulars: in vivo, 672 h, dose 10-30 mg/kg, time 28 day.
Data set [12] in a line: Toxicity in SCID male mouse xenografted with human LNCaP/AR cells assessed as animal weight loss at 10 to 30 mg/kg, po administered once daily for 28 days and measured every 3 days. It counts as organism-based. Particulars: in vivo, 672 h, dose 10-30 mg/kg, time 28 day.
Data set [13] can be described thus: Toxicity in BALB/c mouse xenografted with enzalutamide resistant human LNCaP C4-2B cells assessed as body weight loss at 10 to 30 mg/kg, po administered once daily for 28 days and measured every 3 days. It counts as organism-based. Particulars: in vivo, 672 h, dose 10-30 mg/kg, time 28 day.
The target of another data set is Progesterone receptor (Homo sapiens, UniProt P06401). As to the kind of experiment: Antagonist activity at PR (unknown origin).
A further data set has as its target Glucocorticoid receptor (Homo sapiens, UniProt P04150). As to the kind of experiment: Antagonist activity at GR (unknown origin).
The target in a further data set is Estrogen receptor (Homo sapiens, UniProt P03372). Put plainly: Antagonist activity at ERalpha (unknown origin).
The next data set addresses Cytochrome P450 1A2 (Homo sapiens, UniProt P05177). Put plainly: Inhibition of CYP1A2 (unknown origin). Type of data set: ADME.
Another data set addresses Cytochrome P450 2C19 (Homo sapiens, UniProt P33261). Put plainly: Inhibition of CYP2C19 (unknown origin). It counts as ADME.
Another data set concerns the target Cytochrome P450 2C9 (Homo sapiens, UniProt P11712). Put plainly: Inhibition of CYP2C9 (unknown origin). Type of data set: ADME.
The target in another data set is Cytochrome P450 2D6 (Homo sapiens, UniProt P10635). Put plainly: Inhibition of CYP2D6 (unknown origin). It counts as ADME.
Data set [14] concerns the target T3, Cytochrome P450 3A4 (Homo sapiens, UniProt P08684). Put plainly: Inhibition of CYP3A4 (unknown origin) using midazolam substrate. Type of data set: ADME.
Data set [15] deals with T3, Cytochrome P450 3A4. Put plainly: Inhibition of CYP3A4 (unknown origin) using testosterone as substrate. Type of data set: ADME.
Data set [16] relates to GABA-A receptor; anion channel. Put plainly: Antagonist activity at GABA-A (unknown origin) at 40 uM relative to control. It counts as toxicity. Particulars: human.
Data set [17] in a line: Mutagenicity in Salmonella typhimurium TA98 in presence of liver S9 fraction by AMES test. The conditions noted are these: salmonella enterica subsp. enterica serovar typhimurium. Type of data set: toxicity, subcellular.
Data set [18] is described as follows: Mutagenicity in Salmonella typhimurium TA100 in presence of liver S9 fraction by AMES test. Type of data set: toxicity, subcellular. Particulars: salmonella enterica subsp. enterica serovar typhimurium.
The nature of data set [19]: Mutagenicity in Salmonella typhimurium TA1535 in presence of liver S9 fraction by AMES test. It counts as toxicity, subcellular. Particulars: salmonella enterica subsp. enterica serovar typhimurium.
Data set [20] can be described thus: Mutagenicity in Salmonella typhimurium TA1537 in presence of liver S9 fraction by AMES test. Particulars: salmonella enterica subsp. enterica serovar typhimurium. Type of data set: toxicity, subcellular.
A short description of data set [21]: Mutagenicity in Escherichia coli WP2 uvrA in presence of liver S9 fraction by AMES test. Type of data set: toxicity, subcellular.
The nature of data set [22]: Mutagenicity in Salmonella typhimurium TA98 in absence of liver S9 fraction by AMES test. Type of data set: toxicity. Particulars: salmonella enterica subsp. enterica serovar typhimurium.
Data set [23] can be described thus: Mutagenicity in Salmonella typhimurium TA100 in absence of liver S9 fraction by AMES test. It counts as toxicity. Particulars: salmonella enterica subsp. enterica serovar typhimurium.
A short description of data set [24]: Mutagenicity in Salmonella typhimurium TA1535 in absence of liver S9 fraction by AMES test. Type of data set: toxicity. The conditions noted are these: salmonella enterica subsp. enterica serovar typhimurium.
Data set [25] in a line: Mutagenicity in Salmonella typhimurium TA1537 in absence of liver S9 fraction by AMES test. Particulars: salmonella enterica subsp. enterica serovar typhimurium. Type of data set: toxicity.
Data set [26] in a line: Mutagenicity in Escherichia coli WP2 uvrA in absence of liver S9 fraction by AMES test. Type of data set: toxicity.
The nature of data set [27]: Genotoxicity in CHL cells in absence of rat liver S9 fraction by micronucleus test. The conditions noted are these: chinese hamster. Type of data set: toxicity, cell-based, Cricetulus griseus.
Data set [28] is described as follows: Genotoxicity in CHL cells in presence of rat liver S9 fraction by micronucleus test. It counts as toxicity, Cricetulus griseus. Particulars: chinese hamster.
In data set [29] the target is T1, Androgen receptor. Put plainly: Antagonist activity at wild type androgen receptor expressed in HEK293 cells assessed as reduction in DHT-induced transcriptional activation of androgen receptor incubated for 24 hrs by Steady-Glo assay. Type of data set: cell-based.

Chain of Voltage-gated inwardly rectifying potassium channel KCNH2 (Q12809 whole entry): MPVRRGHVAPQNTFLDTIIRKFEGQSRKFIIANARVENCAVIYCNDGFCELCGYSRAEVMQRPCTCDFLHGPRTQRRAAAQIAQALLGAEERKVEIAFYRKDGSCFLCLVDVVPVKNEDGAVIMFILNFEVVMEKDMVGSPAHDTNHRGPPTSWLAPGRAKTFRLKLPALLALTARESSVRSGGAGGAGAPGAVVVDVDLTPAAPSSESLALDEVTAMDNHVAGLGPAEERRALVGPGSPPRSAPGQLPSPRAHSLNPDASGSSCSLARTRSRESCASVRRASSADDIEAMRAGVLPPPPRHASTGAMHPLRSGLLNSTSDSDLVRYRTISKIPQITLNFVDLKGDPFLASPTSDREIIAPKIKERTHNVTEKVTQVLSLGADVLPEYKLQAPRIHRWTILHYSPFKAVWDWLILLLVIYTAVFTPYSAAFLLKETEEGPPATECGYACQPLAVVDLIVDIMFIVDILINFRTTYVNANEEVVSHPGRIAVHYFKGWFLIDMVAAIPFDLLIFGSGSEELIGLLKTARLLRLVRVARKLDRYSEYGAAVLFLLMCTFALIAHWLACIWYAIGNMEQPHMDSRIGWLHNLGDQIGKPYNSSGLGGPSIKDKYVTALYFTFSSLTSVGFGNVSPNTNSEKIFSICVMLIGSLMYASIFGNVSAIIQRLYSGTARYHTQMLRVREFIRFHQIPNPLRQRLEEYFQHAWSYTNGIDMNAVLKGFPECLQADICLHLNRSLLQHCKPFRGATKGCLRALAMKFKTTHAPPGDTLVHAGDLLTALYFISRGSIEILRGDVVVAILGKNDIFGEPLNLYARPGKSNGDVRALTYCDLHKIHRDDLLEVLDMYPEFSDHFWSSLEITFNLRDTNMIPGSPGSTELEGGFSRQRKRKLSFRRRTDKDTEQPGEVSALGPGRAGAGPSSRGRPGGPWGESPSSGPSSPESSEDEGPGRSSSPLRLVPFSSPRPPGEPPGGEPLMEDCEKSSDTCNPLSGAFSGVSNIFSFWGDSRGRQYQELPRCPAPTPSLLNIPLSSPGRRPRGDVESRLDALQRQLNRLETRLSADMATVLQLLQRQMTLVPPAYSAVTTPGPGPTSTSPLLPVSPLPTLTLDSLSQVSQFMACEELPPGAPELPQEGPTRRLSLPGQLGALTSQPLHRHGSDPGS
T3 sequence (P08684 whole entry): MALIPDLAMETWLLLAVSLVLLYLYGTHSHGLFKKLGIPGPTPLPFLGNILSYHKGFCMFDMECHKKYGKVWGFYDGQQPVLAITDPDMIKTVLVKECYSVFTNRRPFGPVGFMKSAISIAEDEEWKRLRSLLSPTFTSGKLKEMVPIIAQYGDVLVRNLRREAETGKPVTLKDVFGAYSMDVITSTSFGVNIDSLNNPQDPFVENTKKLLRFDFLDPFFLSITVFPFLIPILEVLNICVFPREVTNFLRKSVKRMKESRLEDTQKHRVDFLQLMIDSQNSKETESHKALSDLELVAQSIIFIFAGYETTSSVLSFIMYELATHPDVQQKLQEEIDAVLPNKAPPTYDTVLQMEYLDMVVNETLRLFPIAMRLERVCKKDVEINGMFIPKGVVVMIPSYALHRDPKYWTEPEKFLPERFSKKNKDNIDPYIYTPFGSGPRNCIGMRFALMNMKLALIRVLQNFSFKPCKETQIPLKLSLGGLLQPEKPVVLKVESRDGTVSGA
Chain of Cytochrome P450 2C9 (P11712 whole entry): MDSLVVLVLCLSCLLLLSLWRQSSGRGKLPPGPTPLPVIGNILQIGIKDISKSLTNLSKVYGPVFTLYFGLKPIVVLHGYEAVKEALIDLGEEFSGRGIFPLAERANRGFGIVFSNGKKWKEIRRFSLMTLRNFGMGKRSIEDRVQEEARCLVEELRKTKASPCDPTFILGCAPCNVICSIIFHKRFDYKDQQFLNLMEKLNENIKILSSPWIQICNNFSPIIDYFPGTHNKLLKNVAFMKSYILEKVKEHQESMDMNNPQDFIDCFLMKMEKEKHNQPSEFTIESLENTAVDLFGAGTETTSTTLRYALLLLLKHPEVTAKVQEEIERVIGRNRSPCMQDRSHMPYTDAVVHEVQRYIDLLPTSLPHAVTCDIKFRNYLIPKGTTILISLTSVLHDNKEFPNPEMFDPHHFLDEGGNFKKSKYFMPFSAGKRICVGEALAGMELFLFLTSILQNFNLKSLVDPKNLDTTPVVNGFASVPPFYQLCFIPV
Chain of Progesterone receptor (P06401 whole entry): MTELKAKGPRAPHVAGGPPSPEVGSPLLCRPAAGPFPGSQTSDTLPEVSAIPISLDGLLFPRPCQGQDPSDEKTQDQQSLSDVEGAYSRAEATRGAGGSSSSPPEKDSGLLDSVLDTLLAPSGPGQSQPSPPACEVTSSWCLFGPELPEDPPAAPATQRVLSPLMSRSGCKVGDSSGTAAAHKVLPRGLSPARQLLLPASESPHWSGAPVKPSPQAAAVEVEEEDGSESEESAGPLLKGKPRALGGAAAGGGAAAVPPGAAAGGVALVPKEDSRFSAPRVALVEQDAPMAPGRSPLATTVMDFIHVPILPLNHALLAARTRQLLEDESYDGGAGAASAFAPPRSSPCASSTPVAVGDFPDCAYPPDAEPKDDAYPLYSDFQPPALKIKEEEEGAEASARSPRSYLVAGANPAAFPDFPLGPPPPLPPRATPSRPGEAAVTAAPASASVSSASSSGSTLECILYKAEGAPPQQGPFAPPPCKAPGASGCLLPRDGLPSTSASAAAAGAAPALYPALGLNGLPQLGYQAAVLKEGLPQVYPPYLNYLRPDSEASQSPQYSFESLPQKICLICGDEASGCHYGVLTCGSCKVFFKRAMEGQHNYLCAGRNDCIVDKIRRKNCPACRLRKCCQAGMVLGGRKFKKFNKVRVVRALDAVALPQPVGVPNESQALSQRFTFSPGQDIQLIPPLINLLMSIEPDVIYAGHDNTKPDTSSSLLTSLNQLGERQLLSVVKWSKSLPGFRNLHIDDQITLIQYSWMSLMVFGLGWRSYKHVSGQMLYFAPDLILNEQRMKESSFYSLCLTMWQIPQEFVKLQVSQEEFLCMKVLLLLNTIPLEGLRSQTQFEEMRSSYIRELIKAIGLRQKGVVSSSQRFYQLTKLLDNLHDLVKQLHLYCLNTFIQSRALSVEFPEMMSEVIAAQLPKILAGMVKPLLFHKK
Chain of Estrogen receptor (P03372 whole entry): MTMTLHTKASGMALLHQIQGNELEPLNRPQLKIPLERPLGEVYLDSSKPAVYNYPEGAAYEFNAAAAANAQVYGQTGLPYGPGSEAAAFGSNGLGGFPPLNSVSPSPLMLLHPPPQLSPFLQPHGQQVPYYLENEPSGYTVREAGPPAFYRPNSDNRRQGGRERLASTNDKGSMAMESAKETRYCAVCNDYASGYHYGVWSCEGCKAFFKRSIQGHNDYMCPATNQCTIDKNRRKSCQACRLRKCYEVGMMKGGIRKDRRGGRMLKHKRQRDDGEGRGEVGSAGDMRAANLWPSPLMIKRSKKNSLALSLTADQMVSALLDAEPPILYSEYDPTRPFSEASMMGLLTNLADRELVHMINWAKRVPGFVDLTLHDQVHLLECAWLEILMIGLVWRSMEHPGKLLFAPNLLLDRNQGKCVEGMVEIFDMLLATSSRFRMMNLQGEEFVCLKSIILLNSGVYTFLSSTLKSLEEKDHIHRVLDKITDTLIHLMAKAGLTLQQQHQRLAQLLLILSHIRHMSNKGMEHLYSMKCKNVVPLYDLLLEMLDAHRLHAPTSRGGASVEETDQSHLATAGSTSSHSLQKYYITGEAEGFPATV
Chain of Cytochrome P450 2C19 (P33261 whole entry): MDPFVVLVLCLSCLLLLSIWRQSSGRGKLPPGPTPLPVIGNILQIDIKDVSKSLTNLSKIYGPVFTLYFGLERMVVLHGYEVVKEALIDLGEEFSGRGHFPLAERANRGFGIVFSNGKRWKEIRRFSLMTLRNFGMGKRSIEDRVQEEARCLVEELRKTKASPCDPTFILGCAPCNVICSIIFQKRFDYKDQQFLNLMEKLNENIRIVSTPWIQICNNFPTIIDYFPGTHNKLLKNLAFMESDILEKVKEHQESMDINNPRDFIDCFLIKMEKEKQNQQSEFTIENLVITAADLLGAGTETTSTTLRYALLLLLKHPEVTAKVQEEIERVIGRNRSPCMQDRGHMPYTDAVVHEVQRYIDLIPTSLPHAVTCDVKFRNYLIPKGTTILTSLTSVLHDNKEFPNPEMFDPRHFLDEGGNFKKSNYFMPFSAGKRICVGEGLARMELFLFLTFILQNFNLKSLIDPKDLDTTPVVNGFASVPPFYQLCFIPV
Chain of Cytochrome P450 1A2 (P05177 whole entry): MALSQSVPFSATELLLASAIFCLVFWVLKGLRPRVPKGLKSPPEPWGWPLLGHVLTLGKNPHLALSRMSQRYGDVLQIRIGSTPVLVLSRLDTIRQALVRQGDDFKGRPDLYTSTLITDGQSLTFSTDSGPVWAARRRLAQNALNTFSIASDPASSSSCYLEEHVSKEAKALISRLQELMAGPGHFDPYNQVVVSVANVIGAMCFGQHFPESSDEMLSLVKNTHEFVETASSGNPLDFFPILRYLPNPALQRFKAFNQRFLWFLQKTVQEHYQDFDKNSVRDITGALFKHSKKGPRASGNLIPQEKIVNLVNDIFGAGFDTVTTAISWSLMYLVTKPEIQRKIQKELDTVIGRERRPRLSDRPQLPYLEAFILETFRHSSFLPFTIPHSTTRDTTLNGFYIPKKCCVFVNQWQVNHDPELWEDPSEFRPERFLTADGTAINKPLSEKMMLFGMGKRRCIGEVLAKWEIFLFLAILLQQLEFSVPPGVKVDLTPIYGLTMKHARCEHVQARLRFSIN

Consider `Cc1cn(C2=CCC3C4CC=C5C[C@@H](NC(=O)c6ccc(F)cc6)CC[C@]5(C)C4CC[C@]23C)cn1` (stereo not given in full), for which the concentration for half-maximal inhibition (IC50) with LNCaP was 473 nM; in data set [1], more than 40 µM; in data set [3], 100 nM; at Progesterone receptor it was more than 30 µM; on Glucocorticoid receptor, more than 30 µM; on Estrogen receptor, 103 nM. Besides, the 50% inhibitory concentration (IC50) came to 25 µM against Cytochrome P450 1A2; 4.1 µM against Cytochrome P450 2C19; 30.8 µM on Cytochrome P450 2C9; 50 µM against Cytochrome P450 2D6; 1250 nM against Cytochrome P450 3A4 [14]; 810 nM against Cytochrome P450 3A4 [15]. The molecule also displayed an EC50 at Androgen receptor [2] of 1280 nM. Also, the half-life in data set [4] was 197 min. In data set [5], the Tmax is 4 h. In addition, the Cmax in data set [6] was 6430 ng/mL. In data set [7], the AUCt worked out at 68872 h/ng/mL. Moreover, the Activity in data set [8] was -64%; in data set [9] it was -65%; in data set [11], “Non-Toxic”; in data set [12] it was “Non-Toxic”; in data set [13], “Non-Toxic”; in [17], “Non-Toxic”. The Activity result in [18], in data set [19], in data set [20], in data set [21], in [22] and in data set [23] was “Non-Toxic” each time. Besides, the Activity result in data set [24], in data set [25], in data set [26], in [27] and in [28] was “Non-Toxic” each time. The inhibition in vivo at 10 mg/kg in data set [10] came to 56%. In addition, in data set [16], the “inhibition (INH)” value was “Not Active”.

Take `Cc1cn(C2=CCC3C4CC=C5C[C@@H](NC(=O)c6ccncc6)CC[C@]5(C)C4CC[C@]23C)cn1` (stereo not given in full): the IC50 amounted to 341 nM in the data set on LNCaP, 6.47 µM in data set [1], 2590 nM in [3] and 612 nM at Androgen receptor [29]. For the same molecule, on Androgen receptor [2], the concentration giving a half-maximal response (EC50) came out at 2840 nM. Moreover, in [4], the half-life was 168 min. Also, the Tmax in [5] was 2.17 h. In data set [6], this molecule came in with a Cmax of 2670 ng/mL. Besides, the AUCt in data set [7] stood at 24800 h/ng/mL.

Usually IC50 stands for the concentration that inhibits the measured activity by half. For orientation: EC50 means the concentration that produces a half-maximal response. A low value points to greater potency. The half-life is the time needed for the level to fall by half in the phase considered. A higher half-life goes with slow loss. The Tmax is the time from dosing to the highest level. One may read the Cmax as the highest concentration seen after dosing.
